Experimental data from patent US20070213505A1, “Solution Synthesis of Peptide Cell Growth Stimulators” (priority 2006, published 2007).
Peptide text beside a SMILES is read from it.

Legend:
[1] = system: transfectoma cell line which is an SP2/0 derived line engineered to produce an anti-cytokine monoclonal antibody (mAb); assay: Effect of Gly-Lys-Gly on growth and productivity of a transfectoma cell line in MET1.5 shaker flask culture; format: cell-based; conditions: for viable cell density: unsupplemented control 2.0×10^6
Method: Two preparations of the tri-peptide, Gly-L-Lys-Gly, were compared for their effect on growth and productivity of a transfectoma cell line which is an SP2/0 derived line engineered to produce an anti-cytokine monoclonal antibody (mAb). The final lot of GKG prepared in Example V was compared to commercial prepared GKG purchased from Bachem (King of Prussia, Pa.).
Cells were cultured in a proprietary defined medium, MET1.5, supplemented with 7.0 mM glutamine, 10 g/L MHX, and 2.0 g/L sodium bicarbonate. The Centocor-made GKG peptide in quantities of 0.35 g/L, 0.70 g/L, and 1.40 g/L were added to 250 mL of MET 1.5 media. The GKG from Bachem was added to 250 mL of MET 1.5 media at concentrations of 0.38 g/L, 0.76g/L, and 1.5 g/L. The cells were cultured in 125 mL shaker flasks and were rotating at 125 RPM. The culture was also incubated at 37° C. in a humidified atmosphere with 5% CO2 and 95% air. The culture volume was 40 mL. Two control flasks and two flasks per peptide concentration were sampled at days zero, one, two, three, four, five, and six for viable cell density and antibody determination.
The cultures were inoculated at a density of 2×10^5 cells/mL and were passaged three times (split every three days). On the third passage they were incubated until the decline phase.
Viable cells and dead cells were calculated by trypan exclusion with the Cedex cell counter. The mAb concentrations were determined by immunoturbidity via the IMMAGE 800 nephelometer (Beckman, Coulter, Brea, Calif.). The effects of the Gly-Lys-Gly peptide on antibody secretion by a production cell line was gauged by calculating integral viable density (IVCC), and titer. IVCC was calculated by integrating the areas under the growth curves. Specific antibody productivity was calculated as the antibody production per day (titer) divided by IVCC.

[2] = system: CHO line; assay: Effect of Gly-Lys-Gly on growth and productivity of a CHO line in chemically defined CHO medium; format: cell-based, Chinese Hamster; conditions: CHO medium supplemented at the same concentrations as in the SP2/0 test; results not shown
Text: In a previous experiment, a proprietary chemically defined Chinese Hamster Ovary (CHO) medium was supplemented with both the Centocor and Bachem-made peptides at the same concentrations above.

Molecule | viable cell density ([1]; 0.35 g/L peptide in MET1.5, mean of two samples) | enhancement of the product yield or viable cell density ([1]; 0.7 g/L peptide in MET1.5) | increase in titer (concentration of mAb) ([1]; 1.4 g/L peptide in MET1.5) | viable cell density and percent viability increases ([1]; 1.4 g/L peptide in MET1.5) | effect on growth and productivity [2] | viable cell density ([1]; 0.38 g/L peptide in MET1.5, mean of two samples) | titer ([1]; 0.76 g/L peptide in MET1.5, rose from 117 mg/L without supplement, mean of two samples) | increase in titer (concentration of mAb) ([1]; 1.5 g/L peptide in MET1.5) | viable cell density and percent viability increases ([1]; 1.5 g/L peptide in MET1.5)
NCCCC[C@H](NC(=O)CN)C(=O)NCC(=O)O [Centocor-made peptide, Glycyl-L-Lysyl-Glycine] (H-Gly-Lys-Gly-OH) | 2.5×10^6 viable cells/mL | No enhancement | 21% | could not be observed | minimal to no effect | – | – | – | –
Gly-L-Lys-Gly [Bachem-made-peptide] | – | – | – | – | minimal to no effect | 2.6×10^6 viable cells/mL | 137 mg/L | 34% | could not be observed
